Experimental data published in patent US20040197222A1 (priority 2002, published 2004).
“Also recorded” adds a separate entry of the source. Where two headings read alike, the source gives them in different places.

Key:
[1] = system: Bacillus anthracis ANR-1 spores; format: cell-based; conditions: 37 °C; for reduction in B. anthracis spores: all concentrations tested (80 to 320 mg/L)
B. atrophaeus spores = format: cell-based
[2] = system: B. subtilis var. niger strips containing 10^8 spores; format: cell-based, Bacillus subtilis var. niger; conditions: 28 °C to 38 °C, 250 to 350 oz/mcf, 48 hours
[3] = system: G. stearothermophilus spores; format: cell-based
[4] = system: B. subtilis var. niger spores (10^6, ATCC #9372); format: cell-based, Bacillus subtilis var. niger; conditions: for germination of B. subtilis spores: exposure as long as 164 hours
[5] = system: 10^5 of B. stearothermophilus ATCC # 7953; assay: Trailer field fumigation, combined-species spore strips incubated for B. stearothermophilus; format: cell-based, Bacillus stearothermophilus
[6] = system: 10^6 spores of B. subtilis var. niger ATCC # 9372; format: cell-based, Bacillus subtilis var. niger; conditions: trailer, 20 sites, 28 °C to 38 °C, 250 to 350 oz/mcf, 48 hours
[7] = system: B. stearothermophilus spores (10^5, ATCC #7953); format: cell-based, Bacillus stearothermophilus

CBr [methyl bromide]
lowest total concentration at which treatment is effective (B. anthracis) ([1]; 48 hours): 80 mg/L | reduction in B. anthracis spores ([1]; 48 hours): ≥ 7 log | reduction in B. anthracis spores ([1]; 48 hours, listed as MB): ≥ 6 log | B. anthracis spores in chamber 6 ([1]; chamber 6, 48 hours): completely killed | B. anthracis spores remaining (detection level) ([1]; out of 14 million, 80 to 320 mg/L, 48 hours): < 50 spores | Recovery of viable spores, commercial spore strips B. atrophaeus (B. atrophaeus spores): no growth; also recorded: growth | killing of B. atrophaeus spores on a spore strip (B. atrophaeus spores): insufficient to kill all B. atrophaeus spores | germination of spores in strips with concentrations of 10^8, field fumigation [2]: successfully disabled | Recovery of viable spores, commercial spore strips G. stearothermophilus A [3]: no growth | Recovery of viable spores, commercial spore strips G. stearothermophilus B [3]: no growth; also recorded: growth | killing of G. stearothermophilus spores on a spore strip [3]: capable of killing all G. stearothermophilus spores | Spore Germination B. subtilis ([4]; 19 °C, MeBr 48 mg/l (theoretical), 104 hours, 5,000 mg-hr/l): yes | Spore Germination B. subtilis ([4]; 19 °C, MeBr 48 mg/l (theoretical), 146 hours, 7,000 mg-hr/l): yes | Spore Germination B. subtilis ([4]; 19 °C, MeBr 80 mg/l (theoretical), 112 hours, 9,000 mg-hr/l): yes | Spore Germination B. subtilis ([4]; 19 °C, MeBr 80 mg/l (theoretical), 134 hours, 11,000 mg-hr/l): yes | Spore Germination B. subtilis ([4]; 19 °C, MeBr 80 mg/l (theoretical), 164 hours, 13,120 mg-hr/l): yes | Spore Germination B. subtilis ([4]; 19 °C, MeBr 160 mg/l (theoretical), 164 hours, 26,240 mg-hr/l): yes | germination of B. subtilis spores ([4]; 19 °C, methyl bromide 48 to 80 mg/l (theoretical value)): still germinated | germination of B. subtilis spores ([4]; 19 °C, methyl bromide as high as 320 mg/l (theoretical value)): still able to germinate | B. subtilis spore germination ([4]; 27 °C, methyl bromide 320 mg/l (theoretical value), 72 hours): successfully disabled | germination of the B. subtilis spores ([4]; 32 °C, methyl bromide 160 mg/l (theoretical value), 72 hours): not sufficient to stop germination; also recorded: not sufficient to prevent germination | B. subtilis spore germination ([4]; 32 °C, methyl bromide 240 mg/l (theoretical value), 38 hours): successfully disabled | Spore Germination B. subtilis ([4]; Example 1, 19 °C, MeBr 48 mg/l (theoretical), 63 hours, 3,000 mg-hr/l): yes | Spore Germination B. subtilis ([4]; Example 2, 19 °C, MeBr 48 mg/l (theoretical), 63 hours, 3,000 mg-hr/l): yes | Spore Germination B. subtilis ([4]; Example 2, 20 °C, MeBr 320 mg/l (theoretical), 72 hours, 23,040 mg-hr/l): yes | Spore Germination B. subtilis ([4]; Example 2, 20 °C, MeBr 320 mg/l (theoretical), 96 hours, 30,720 mg-hr/l): yes | Spore Germination B. subtilis ([4]; Example 2, 27 °C, MeBr 240 mg/l (theoretical), 48 hours, 11,520 mg-hr/l): yes | Spore Germination B. subtilis ([4]; Example 2, 27 °C, MeBr 320 mg/l (theoretical), 72 hours, 23,040 mg-hr/l): no | Spore Germination B. subtilis ([4]; Example 2, 27 °C, MeBr 320 mg/l (theoretical), 96 hours, 30,720 mg-hr/l): no | Spore Germination B. subtilis ([4]; Example 2, 27 °C, MeBr 320 mg/l (theoretical), 96 hours, 30,720 mg-hr/l, chamber contained office commodities): no^4 | Spore Germination B. subtilis ([4]; Example 3, 19 °C, MeBr 48 mg/l (theoretical), 63 hours, 3,000 mg-hr/l): no | Spore Germination B. subtilis ([4]; Example 3, 27 °C, MeBr 320 mg/l (theoretical), 62 hours, 19,776 mg-hr/l): no | Spore Germination B. subtilis ([4]; Example 3, 32 °C, MeBr 160 mg/l (theoretical), 72 hours, 11,520 mg-hr/l): yes | Spore Germination B. subtilis ([4]; Example 3, 32 °C, MeBr 240 mg/l (theoretical), 48 hours, 11,520 mg-hr/l): no | Spore Germination B. subtilis ([4]; Example 3, 32 °C, MeBr 240 mg/l (theoretical), 72 hours, 17,280 mg-hr/l): no | Spore Germination B. subtilis ([4]; Example 3, 32 °C, MeBr 320 mg/l (theoretical), 38 hours, 12,160 mg-hr/l): no | Spore Germination B. subtilis ([4]; Example 3, 32 °C, MeBr 320 mg/l (theoretical), 47 hours, 15,104 mg-hr/l): no | spores on all 10^5 B. stearothermophilus strips, field fumigation [5]: successfully disabled; also recorded: killed | spores on all 10^6 B. subtilis strips, field fumigation [6]: successfully disabled | spores on all 10^6 B. subtilis strips, field fumigation ([6]; listed as MB): killed | Spore Germination B. stearo. [7]: no and yes | germination of Bacillus stearothermophilus spores [7]: prevented from germinating
